This is an account of results in article PMC7912928, “Anti-Infective and Antiviral Activity of Valinomycin and Its Analogues from a Sea Cucumber-Associated Bacterium, Streptomyces sp. SV 21” (Marine Drugs, 2021).

Series [1] concerns Pseudomonas aeruginosa (PA14). As to the kind of experiment: Antimicrobial microdilution assay (MIC). The format is cell-based. The following applies: microdilution in 96-well plates, seven 1:2 serial dilution steps, Mueller–Hinton bouillon, start OD548 0.1, 30 °C, 160 rpm overnight. From the text:
(§1) The panel of test microorganisms consisted of the following multi drug-resistant (MDR) bacteria: Gram-negative Escherichia coli (DSM 1116) and Pseudomonas aeruginosa (PA16); Gram-positive Bacillus subtilis (DSM 10), Staphylococcus aureus (DSM 346), and Mycobacterium smegmatis (ATCC 7000048); yeasts Candida albicans (DSM 1665) and Rhodotorula glutinis (DSM 10134); and filamentous fungi Mucor hiemalis (DSM 2656). The positive controls were nystatin, oxytetracyclin, kanamycin, and gentamycin, with a concentration of 1 mg/mL. Compounds 1–4 were prepared in a concentration of 1 mg/mL MeOH. The activity of the samples was observed by using the microdilution technique in 96 well plates for tissue cultures (TPP). As much as 20 µL of the MeOH solution of each compound (1 mg/mL) was mixed with 300 µL of bacterial or fungal suspension, except for the positive controls where 2 µL of either oxytetracycline, kanamycin, and gentamycin in 300 µL of bacterial suspension was used. The samples were tested in seven 1:2 serial dilution steps (concentrations A to H) in 96-well plates. Bacteria were cultivated in Mueller–Hinton bouillon (Roth) and fungi/yeasts in MYC medium (1.0% phytone peptone, 1.0% glucose, and 1.19% HEPES, pH 7.0). Start OD600 was 0.01 for B. subtilis, E. coli, and S. aureus; start OD548 was 0.1 for M. hiemalis, C. albicans, R. glutinis, M. smegmatis, and P. aeruginosa. The test organisms were cultivated at 30 °C and 160 rpm overnight.

Series [2] concerns Hepatitis C Virus (HCV), Jc1-derived Renilla reporter viruses in Huh7.5 Fluc cells. The experiment in a line: Inhibitory effects on Hepatitis C Virus (HCV) infectivity. The format is cell-based. The following applies: 10 µg/mL, Huh7.5 Fluc cells infected with Jc1-derived Renilla reporter viruses, Renilla luciferase read-out, compared to positive control EGCG, Figure 4A. As to the method: (§2) The anti-HCV assay was performed as mentioned in [5]. In brief, Huh7.5 cells stably expressing Firefly luciferase (Huh7.5 Fluc) were cultured in Dulbecco’s modified minimum essential medium (DMEM, Gibco, Thermo Fisher Scientific, Schwerte, Germany) and maintained in a 37 °C environment with 5% CO2 supply. Samples were added to the cells, and then the cells were infected with Jc1-derived Renilla reporter viruses. Compounds and the positive control (Epigallocatechin gallate, EGCG) were tested at a concentration of 10 µg/mL. Renilla and Firefly luciferase activities from the infected cells were measured on a Berthold Technologies Centro XS3 Microplate Luminometer (Bad Wildbad, Germany) as indicators of viral genome replication and cell viability, respectively.

Series [3] concerns Eschericia coli (DSM 1116). As to the kind of experiment: Antimicrobial microdilution assay (MIC). The following applies: seven 1:2 serial dilution steps, Mueller–Hinton bouillon, start OD600 0.01, 30 °C, 160 rpm overnight; for MIC, Gram-Negative, Ec: microdilution in 96-well plates. The format is cell-based, Escherichia coli.
Text: as §1
For orientation: Broth dilution looks for growth in wells or tubes with falling amounts of substance.

Series [4] concerns Mucor hiemalis (DSM 2656). The series is classed as cell-based. The note with it: for MIC, Fungi, Mh: Mucor hiemalis (DSM 2656), microdilution in 96-well plates, seven 1:2 serial dilution steps, MYC medium pH 7.0, start OD548 0.1, 30 °C, 160 rpm overnight.
Text: as §1

In series [5] the test system is Rhodoturula glutinis (DSM 10134). The format is cell-based. The following applies: for MIC, Fungi, Rg: Rhodoturula glutinis (DSM 10134), microdilution in 96-well plates, seven 1:2 serial dilution steps, MYC medium pH 7.0, start OD548 0.1, 30 °C, 160 rpm overnight.
Text: as §1

The test system of series [6] is Staphylococcus aureus (DSM 346). As to the kind of experiment: microbe, parasite or virus in culture. The format is cell-based. The note with it: seven 1:2 serial dilution steps, Mueller–Hinton bouillon, start OD600 0.01, 30 °C, 160 rpm overnight; for MIC, Gram-Positive, Sa: microdilution in 96-well plates.
Text: as §1

Another series has as its system Bacillus subtilis (Bs). The following applies: pH values from 5.5 to 9.5; cited from earlier work. An excerpt: Previous studies had also shown antifungal activity of valinomycin against the plant pathoge ...
In the next series the test system is Huh7.5 cells. As to the kind of experiment: Viability of Huh7.5 cells (Firefly luciferase) in the anti-HCV assay. The format is cell-based. The following applies: 10 µg/mL; Firefly luciferase read-out; compared to positive control EGCG; Figure 4B. As to the method: as §2
In series [7] the test system is Mycobacterium smegmatis (ATCC 700084). The experiment in a line: Antimicrobial microdilution assay (MIC). The series is classed as cell-based. The note with it: microdilution in 96-well plates, seven 1:2 serial dilution steps, Mueller–Hinton bouillon, start OD548 0.1, 30 °C, 160 rpm overnight.
Text: as §1

For series [8], the system named is Candida albicans (DSM 1665). The experiment in a line: Antimicrobial microdilution assay (MIC). The format is cell-based. The following applies: microdilution in 96-well plates, seven 1:2 serial dilution steps, MYC medium pH 7.0, start OD548 0.1, 30 °C, 160 rpm overnight.
Text: as §1

Series [9] relates to Bacillus subtilis (DSM 10). As to the kind of experiment: microbe, parasite or virus in culture. The format is cell-based. The following applies: seven 1:2 serial dilution steps, Mueller–Hinton bouillon, start OD600 0.01, 30 °C, 160 rpm overnight.
Text: as §1

Converted amounts (≈) assume the structure as drawn.

Consider Gentamycin, for which the “MIC, Gram-Negative, Pa” value in series [1] came out at 0.4 µg/mL.
Consider `CC(C)[C@@H]1NC(=O)[C@H](C)OC(=O)[C@@H](C(C)C)NC(=O)[C@@H](C(C)C)OC(=O)[C@H](C(C)C)NC(=O)[C@H](C)OC(=O)[C@@H](C(C)C)NC(=O)[C@@H](C(C)C)OC(=O)[C@H](C(C)C)NC(=O)[C@H](C)OC(=O)[C@@H](C(C)C)NC(=O)[C@H](C)OC1=O` [Streptodepsipeptide P11B (1), Streptodepsipeptide P11B], for which the “Activity against HCV infectivity (HCV-infected hepatoma cells), in words” value (“Activity against HCV infectivity” below) in series [2] is “significantly less affected the HCV”. Further, in series [3], the “MIC, Gram-Negative, Ec” value is listed as “-”. Moreover, the “MIC, Fungi, Mh” value in [4] is 16.6 µg/mL (≈ 15.3 µM). For the same compound, the “MIC, Fungi, Rg” value in series [5] worked out at 33.3 µg/mL (≈ 30.7 µM).
In the case of `CC(C)[C@@H]1NC(=O)[C@H](C)OC(=O)[C@@H](C(C)C)NC(=O)[C@@H](C(C)C)OC(=O)[C@H](C(C)C)NC(=O)[C@H](C)OC(=O)[C@@H](C(C)C)NC(=O)[C@@H](C(C)C)OC(=O)[C@H](C(C)C)NC(=O)[C@H](C)OC(=O)[C@@H](C(C)C)NC(=O)[C@@H](C(C)C)OC1=O` [Valinomycin (3), Valinomycin], the “MIC, Gram-Positive, Sa” value in series [6] came to 4.2 µg/mL (≈ 3.78 µM). The “Activity against HCV infectivity” value in series [2] is “potent antiviral activity”. Further, in [3], the “MIC, Gram-Negative, Ec” value was “-”. Moreover, in series [4], the “MIC, Fungi, Mh” value was 2.1 µg/mL (≈ 1.89 µM). Also, the “Antifungal strength relative to nystatin against Mh” value in [4] (comparison of MIC values, Mucor hiemalis) was “eight times stronger than nystatin”. Also, the “MIC, Fungi, Rg” value in series [5] is 4.2 µg/mL (≈ 3.78 µM). For the same compound, the “Antifungal strength relative to nystatin against Rg” value in [5] (comparison of MIC values, Rg) is recorded as “as strong as nystatin”. In the series with Bacillus subtilis (Bs), the “Antibacterial activity against Bs as a function of pH, in words” value is recorded as “increase in antibacterial activity against Bs at higher pH values”. For the same compound, the “Viability of Huh7.5 cells after exposure to the test compounds, in words” value (shortened to “Viability of Huh7.5 cells after exposure”) in the series with Huh7.5 cells is “lower than for the positive control”.
On to `NC[C@H]1O[C@H](O[C@H]2[C@H](O)[C@@H](O[C@H]3O[C@H](CO)[C@@H](O)[C@H](N)[C@H]3O)[C@H](N)C[C@@H]2N)[C@H](O)[C@@H](O)[C@@H]1O` [Kanamycin], for which, in series [7], the “MIC, Gram-Positive, Ms” value was found to be 3.3 µg/mL (≈ 6.81 µM).
For the compound `C[C@@H]1[C@H](O)[C@@H](C)/C=C/C=C/CC/C=C/C=C/C=C/C=C/C(O[C@H]2O[C@H](C)[C@@H](O)[C@H](N)[C@@H]2O)CC2O[C@](O)(CC(O)C(O)CCC(O)CC(O)CC(O)CC(=O)O[C@H]1C)CC(O)C2C(=O)O` (stereo partly drawn) [Nystatin, reference compound], the “MIC, Fungi, Mh” value in [4] stood at 16.6 µg/mL (≈ 17.9 µM). For the same compound, in [5], the “MIC, Fungi, Rg” value amounted to 4.2 µg/mL (≈ 4.54 µM). Also, the “MIC, Fungi, Ca” value in series [8] was found to be 33.3 µg/mL (≈ 36 µM).
On to `CCC(C)[C@H]1OC(=O)[C@H](C(C)C)NC(=O)[C@H](C)OC(=O)[C@@H](C(C)C)NC(=O)[C@@H](C(C)C)OC(=O)[C@H](C(C)C)NC(=O)[C@H](C)OC(=O)[C@@H](C(C)C)NC(=O)[C@@H](C(C)C)OC(=O)[C@H](C(C)C)NC(=O)[C@H](C)OC(=O)[C@@H](C(C)C)NC1=O` (stereo partly drawn) [Streptodepsipeptide SV21 (4), Streptodepsipeptide SV21], for which, in [6], the “MIC, Gram-Positive, Sa” value amounted to 16.6 µg/mL (≈ 14.8 µM). In series [9] (microdilution in 96-well plates), the “MIC, Gram-Positive, Bs” value was found to be 33.3 µg/mL (≈ 29.6 µM). For the same compound, in series [2] (listed as 4), the “Activity against HCV infectivity” value is “potent antiviral activity”. Further, the “MIC, Gram-Negative, Ec” value in series [3] is listed as “-”. Besides, in [4], the “MIC, Fungi, Mh” value stood at 16.6 µg/mL (≈ 14.8 µM). Further, the “MIC, Fungi, Rg” value in series [5] was found to be 16.6 µg/mL (≈ 14.8 µM). The “Viability of Huh7.5 cells after exposure” value with Huh7.5 cells is listed as “lower than for the positive control”.
As to `CN(C)[C@@H]1C(O)=C(C(N)=O)C(=O)[C@@]2(O)C(O)=C3C(=O)c4c(O)cccc4[C@@](C)(O)[C@H]3[C@H](O)[C@@H]12` [Oxytetracycline, reference compound], the MIC in series [6] (DSM346, microdilution in 96-well plates, read-out: MIC, Gram-Positive, Sa) amounted to 0.2 µg/mL (≈ 0.434 µM); in [9] (DSM10, microdilution in 96-well plates, read-out: MIC, Gram-Positive, Bs), 8.3 µg/mL (≈ 18 µM); in series [3] (Escherichia coli, DSM1116, microdilution in 96-well plates, read-out: MIC, Gram-Negative, Ec), 1.7 µg/mL (≈ 3.69 µM).
For `CC[C@H]1OC(=O)[C@H](C(C)C)NC(=O)[C@H](C)OC(=O)[C@@H](C(C)C)NC(=O)[C@@H](C(C)C)OC(=O)[C@H](C(C)C)NC(=O)[C@H](C)OC(=O)[C@@H](C(C)C)NC(=O)[C@@H](C(C)C)OC(=O)[C@H](C(C)C)NC(=O)[C@H](C)OC(=O)[C@@H](C(C)C)NC1=O` [Streptodepsipeptide P11A (2), Streptodepsipeptide P11A], the “Activity against HCV infectivity” value in series [2] is “potent antiviral activity”. Moreover, the “MIC, Gram-Negative, Ec” value in series [3] is “-”. Also, in series [4], the “MIC, Fungi, Mh” value was determined as 8.3 µg/mL (≈ 7.56 µM). The “MIC, Fungi, Rg” value in series [5] was 8.3 µg/mL (≈ 7.56 µM). Also, the “Viability of Huh7.5 cells after exposure” value in the series with Huh7.5 cells is on record as “lower than for the positive control”.
